For `CC(C)NC(=O)CSCC(=O)c1ccc(-c2ccccc2)cc1`, the melting point lay within 120 to 121 °C.
The figure for `CC(C)c1ccc(C(=O)NCCOc2ccc(C(=O)O)cc2)cc1` is 202 to 203 °C; for `NC1=NC(=O)N(CC2CC2)CC1Br` (centres undefined) it is 139 to 143 °C.
`COc1ccccc1CP(CCP(Cc1ccccc1OC)c1ccccc1)c1ccccc1` (centres undefined) displayed a melting point of 102 to 104 °C.
Turning to `Cc1cc2cc(CN3CCCCCC3)cnc2cc1NC(=O)c1ccc(-c2cc3ccccc3o2)cc1`, the melting point is 207 °C.
Consider `Cc1cccc(-c2sc3ccc(C(F)(F)F)cc3c2O)c1`, for which the melting point fell in the range of 124 to 126 °C.
Take `Cc1ccc(S(=O)(=O)NC(=O)OCCc2ccc(-n3c(-c4ccccc4)nc4c(C)nc(C)cc43)cc2)cc1`: the melting point was 194 °C.
`COc1cc(OC)c2c(=O)[nH]c(-c3ccc(N(CCO)CCO)cc3)nc2n1` displayed a melting point of 277 to 279 °C.
The result for `NCC1CCn2c(cc3ccccc32)C1` (centres undefined) reads 85 to 90 °C; that for `C#CCN(C(=O)c1ccco1)c1c(C)cccc1C`, 113 °C; that for `CC12CCC(C(=O)CC1=O)C2(C)C` (centres undefined), 220 °C.
As to `COc1ccc(CC(=O)N2C=CC(C)(C)C=C2)cc1OC`, the melting point lay in the range of 86 to 89.5 °C.
On to `O=C(O)CCC(c1cc(F)ccc1F)S(=O)(=O)c1ccc(Cl)cc1` (centres undefined), for which the melting point lay in the range of 157 to 158 °C.
Compound `COc1ccc(-c2sc3ncc(CO)c(O)c3c2C)cc1` registered a melting point of more than 300 °C.
The result for `CCc1nnc2c(NC(C)C)nc3ccccc3n12` reads 222 to 224 °C.
Compound `CCOP(=O)(CCN1CC(O)CNc2c1c(=O)c2=O)OCC` (centres undefined) returned a melting point of 169 to 171 °C.
The result for `CCCC/C(=C\C=C\C(=O)Oc1ccc([N+](=O)[O-])cc1)c1cccc(OC)c1` reads 81.5 to 83 °C; that for `CCN1C(=O)N(c2cc(OC)cc(OC)c2)Cc2cnc(S(C)=O)nc21` (centres undefined), 167 to 169 °C; that for `COc1cccc2c(=O)n(-c3ccc(Br)cc3)c(-c3cc(C)c(OCCO)c(C)c3)nc12`, 100 to 102 °C.
On to `CCOC(=O)N[C@@H]1c2cc(C#N)ccc2OC(C)(C)[C@H]1O` (relative stereo), for which the melting point was in the range of 147 to 148 °C.
The result for `CN(C)C(=O)c1cc(C(C)(C)C)c(O)c(C(C)(C)C)c1` reads 173 to 174 °C; that for `CCn1c(=O)c2c(nc(/C=C/c3ccc(OCCCCN=[N+]=[N-])cc3)n2C)n(CC)c1=O`, 158 to 159 °C; that for `CSC(N)=C(CCN1CCC(c2noc3cc(F)ccc23)CC1)[N+](=O)[O-]`, 150 to 154 °C.
The result for `Cn1c(=O)[nH]c(=O)c2cccnc21` reads 277 to 285 °C.
For the compound `COC(=O)C(C(C)=O)C(c1cccc([N+](=O)[O-])c1)C(C(C)=O)C(=O)OC` (centres undefined), the melting point fell in the range of 94 to 96 °C.
For `Oc1ccc2c(c1)c1c(n2CCCCCN2CCCCC2)-c2ccccc2SCC1`, the melting point came out at 182 °C.
The figure for `CC(C)(C)OC(=O)C1C=CCn2c(=O)n(CCCl)c(=O)n21` (centres undefined) is 87 to 88 °C; for `Cc1ncc2n1-c1ccc(Cl)cc1C(c1ccccc1)=[N+]([O-])C2` it is 260 to 261 °C; for `CNC(=O)[C@@H](C[C@H](O)[C@H](CC1CCCCC1)NC(=O)[C@H](Cc1cscn1)NC(=O)[C@@H](CC(=O)N1CCOCC1)Cc1ccc(OC)cc1)C(C)C` it is 128 to 130 °C.
Turning to `O=C(NCc1ccc(Cl)cc1)c1cn2c3c(cc(CCCO)cc3c1=O)OCC2(CO)CO`, the melting point lay within 173 to 174 °C.
For `CCC(=NNc1ccccc1)c1cc(Cl)ccc1NS(=O)(=O)C(F)(F)F`, the melting point fell in the range of 128 to 129 °C.
For `COC(=O)CNc1ccccc1C#N`, the melting point was 70 to 78 °C.
On to `O=[N+]([O-])C(c1ccccc1)(c1ccccc1)[N+](=O)[O-]`, for which the melting point was 158 °C.
In turn, `CCN1C[C@@H](O)[C@H](N(C)C(=O)c2ccc([N+](=O)[O-])cc2)C1` (relative stereo) came in with a melting point of 104 to 108 °C.
Compound `COC(=O)CCc1ncc2oc(C(=O)OC)c(O)c2c1C(=O)OC` came in with a melting point of 117 to 118 °C.
As for `Cc1ccc(C)n1-c1c(SC(F)(F)F)c(C#N)nn1-c1c(Cl)cc(C(F)(F)F)cc1Cl`, the melting point lay within 142 to 144 °C.
For `CC(C)(C)c1ccc([C@@H]2C[C@H]3C=C(c4c[nH]c(-c5ccc(F)cc5)c4-c4ccncc4)CCN3C2)cc1`, the melting point lay within 226 to 228 °C.
The compound `COc1ccc2cc(CC(=O)NO)ccc2c1` yielded a melting point of 177 to 180 °C.
Compound `C(=C1CCNCC1)c1ccc(C2=NCCO2)cc1` displayed a melting point of 110 °C.
Take `CCCCCCCCCCC(C)(C)C(=O)Nc1c(C)c(N)c(C)c2c1OC(C)(C)C2`: the melting point amounted to 125 °C.
For the compound `Cc1cccc(N2CCN(Cc3n[nH]c4ccccc34)CC2)c1`, the melting point was in the range of 132 to 134 °C.
The compound `O=C(O)c1cc(=O)c2ccc(COc3ccc(OCc4ccc5ccccc5n4)cc3)cc2o1` yielded a melting point of 216 to 219 °C.
Turning to `Cc1nc(NC(=O)OCC[Si](C)(C)C)cs1`, the melting point was 101 to 103 °C.
As to `O=C(C=Cc1ccc2c(c1)OCO2)C1C(=O)CCC1=O`, the melting point lay in the range of 181 to 182 °C.
`COc1ccc2c(c1)Sc1ccc(F)cc1C(N1CCN(CCN3CCOC3=O)CC1)C2` (centres undefined): the melting point fell in the range of 177 to 179 °C.
Compound `COc1ccc(C(Cc2ccncc2)c2ccc(CO)cc2)cc1OC1CCCC1` (centres undefined) registered a melting point of 179 to 182 °C.
The result for `CCCSc1nc(N)c2ncn(C3C=CCCC3)c2n1` (centres undefined) reads 108 to 113 °C.
`CC1CCCCC1C(=O)Nc1ccc(-c2cnc(-c3ccc(NC(=O)c4ccccn4)cc3)[nH]2)cc1` (centres undefined) gave a melting point of 227 to 229 °C.
Compound `CC1CC(=O)NN=C1c1ccc(-n2ccc(=O)cc2)cc1` (centres undefined) came in with a melting point of 254 to 256 °C.
`CCNc1cc(NS(=O)(=O)c2ccc(N)cc2)nc(NC(C)C)n1` came in with a melting point of 266 to 267 °C.
The compound `Clc1cccc(N2CCN(Cc3cn4cc(Cl)ccc4n3)CC2)c1` gave a melting point of 148 to 149 °C.
The result for `CCOc1cc(-n2ccnc2)ccc1C#N` reads 134 to 136 °C.
Turning to `Cc1cccc(CN2C(=O)C3(COc4cc5c(cc43)OCCO5)c3ccccc32)n1` (centres undefined), the melting point lay within 183 to 185 °C.
On to `CN(C)C(=O)c1ccc(CCC(=O)c2cccc(OCc3ccc4ccc(Cl)cc4n3)c2)o1`, for which the melting point lay in the range of 129 to 131 °C.
The result for `O=C(O)Cc1ccc(NC(=O)C(Cc2ccccc2)NS(=O)(=O)c2ccc(Cl)cc2)cc1` (racemic) reads 204 to 206 °C; that for `CCc1cccc2c(-c3nc(OC)cc(OC)n3)c(C)[nH]c12`, 90.3 to 94.8 °C.
The compound `COc1cccc2c1nc(C(F)F)n2-c1nc(-c2cncnc2)cc(N2CCOCC2)n1` yielded a melting point of 222 to 224 °C.
Compound `CCOc1nc(Nc2ccc(F)c(F)c2)nc(NC2CCN(S(=O)(=O)c3ccc(F)cc3)CC2)n1` came in with a melting point of 240 to 242 °C.
In the case of `COc1cccc2c1c1nc3ccccc3cc1n2C(C)=O`, the melting point was 125 to 126 °C.
In turn, `NS(=O)(=O)c1ncccc1C(F)(F)F` registered a melting point of 135 to 140 °C.
The compound `c1cnn(Cc2ccc3c(c2)-c2[nH]nc(-c4ccsc4)c2C3)c1` showed a melting point of 245 to 247 °C.
Turning to `CCOC(=O)C(C)Oc1cc(-c2ccccc2)nc2ccccc12` (centres undefined), the melting point turned out to be 80 °C.
The figure for `COC(=O)C(=O)c1cn(C)c2cc(-c3ccc(C(F)(F)F)cc3)ccc12` is 199 to 200 °C; for `ON=c1cc(-c2cc3cccn3cn2)oc2ccc(OCCc3ccc(Cl)cc3)cc12` it is 247 to 249 °C; for `NCCCCCCC(=O)Nc1cccc(C(=O)NCCC(=O)O)c1` it is 236 °C.
Turning to `CC(C)(C)c1ccc2cc3cc(C(C)(C)C)ccc3cc2c1`, the melting point is 249 to 253 °C.
Turning to `O=C1NC2(C(=O)CCl)C=CC1C2` (centres undefined), the melting point lay within 86 to 88 °C.
With `CC(C)(C)C1c2ccccc2-c2ccccc2N1S(=O)(=O)c1ccc(O)cc1` (centres undefined), the melting point fell in the range of 187 to 189 °C.
Consider `CC(C)(C)OC(=O)NCC(=O)OCCCCNc1cccc2c1C(=O)c1ccccc1C2=O`, for which the melting point came out at 70 °C.
The figure for `CS(=O)(=O)Nc1ccc(C(=O)NC(=O)N2CCC(Cc3ccc(F)cc3)CC2)cc1` is 221 to 222 °C; for `O=CC12CC3CC(CC(C3)C1)C2` it is 132 to 135 °C; for `COc1cc(Nc2nccc(Oc3ccccc3)n2)cc(OC)c1OC` it is 149 °C.
The result for `N#Cc1ncn2c1nc(N1CCOCC1)c1ccccc12` reads 225 to 228 °C.
The figure for `O=C1c2cccc([N+](=O)[O-])c2C(=O)N1CCO` is 93 °C; for `Cc1ccc(S(=O)(=O)Nc2ccc(F)cc2)cc1` it is 78 to 79.5 °C; for `CC(=O)N(C)c1ccc2sc3ccc(Br)cc3c(=O)c2c1` it is 240 to 241 °C.
`Cn1cc(C(=O)NCc2ccc(Cl)cc2)c(=O)c2cc(CN3CCOCC3)cc(C#CCC(CO)CO)c21` gave a melting point of 190 to 193 °C.
The result for `COC(=O)C1=C(C)N(C)C(C)=C(C(=O)OC)C1c1ccccc1` reads 151 to 153 °C; that for `CC(=O)CC1CN=C(c2cc3cccc(N(C)S(=O)(=O)c4cccs4)c3[nH]2)S1` (centres undefined), 123 to 124 °C; that for `CCN(CC)CCNc1ccc(CNC)c2sc3ccc(O)cc3c(=O)c12`, 167 to 169 °C.
Consider `CC(C)(Cl)CC(=O)c1cc(C(C)(C)C)c(O)c(C(C)(C)C)c1`, for which the melting point was 101 to 102 °C.
`CCOC(=O)CCc1cn(-c2ccc(Cl)cn2)nc1C(C)C` returned a melting point of 70 to 71 °C.
Consider `Nc1nc2c(s1)CCN(CC=Cc1ccoc1)CC2`, for which the melting point was 130 to 136 °C.
Consider `COC(=O)C(Oc1ccc(Cl)cc1)c1ccc(OCOc2ccc(Cl)cc2)cc1` (centres undefined), for which the melting point is 64 to 65 °C.
The compound `O=C1O[C@H](O)[C@@H]2[C@H]1[C@@H]1C=C[C@H]2C1` showed a melting point of 133 °C.
`NC(=O)c1cncc(N)c1` registered a melting point of 263 to 264 °C.
Regarding `COc1ccc(P2(=O)c3ccccc3CN2c2ccccc2)c(OC)c1` (centres undefined), the melting point was 173 to 175 °C.
Turning to `Cc1c(C(=O)O)ccc(S(C)(=O)=O)c1-c1ccc(S(C)(=O)=O)cc1`, the melting point lay in the range of 214 to 215 °C.
`O=C(c1ccc2c(c1)OCCO2)c1cc2ccccc2o1` registered a melting point of 68 to 70 °C.

A word on the melting point: it is the temperature of the solid-liquid transition.
